# Test results reported in patent publication US20180339016A1 (priority 2015, published 2018).
# Assays:
# Gram-positive bacteria [1] = assay: Entry of peptide into Gram-positive bacteria; assay type: cell-based; details: data not shown
# From the text: (§1) […]. […] […].
# MDA MB231 cells = assay: FACS penetration of eukaryotic cells; assay type: cell-based; details: 5 microM
# From the text: as §1
# E. coli = assay: FACS of TAMRA-labeled peptides entering Gram-negative bacteria; assay type: cell-based
# [2] = test system: Escherichia coli (ATCC 25922); details: peptide alone; peptide concentration required to inhibit growth by 20% (so in the source)
# Experimental: (§2) The N-terminus of the peptides were acetylated and the C-terminus was amidated. The kinked structure can rapidly reduce the alpha-helical content, thereby greatly reducing the toxicity of the peptide against host cells. In addition, because of the potential to show specificity for the Gram-negative bacterial membrane, Pro-mutants were prepared by site-directed mutagenesis. Using the prepared peptides, their MIC for the Gram-negative bacterium E. coli and the Gram-positive bacterium S. aureus and their hemolytic activity for host cells were examined (Table 1).
# To measure the synergy between the membrane-activating peptides and the repositioning drug, a 10× compound was prepared, and then serially diluted ⅔-fold with distilled water. An MH broth (900 μl) was added to and mixed with the 10× compound (100 μl), and then 200 μL of the mixture was taken and added to a 96-well plate. E. coli cultured for one day was adjusted to 0.5 MCF using MCFarland, and diluted 10-fold, and then 10 μl of the dilution was added to each well of the plate (5×10^5 CFU/mL). After addition of the bacterial cells, plate was incubated at 37° C. for 18 hours, and then the OD value at UV-Vis (600 nm) was measured. Cell viability (%)=(OD600 of sample−OD600 of negative control)/(OD600 of positive control−OD600 of negative control)×100.
# [3] = test system: Staphylococcus aureus (ATCC 29213); assay: MIC of peptide against S. aureus; assay type: cell-based; details: peptide alone
# Experimental: as §2
# E. coli ATCC 25922 [4] = details: Table 4
# Gram-positive bacteria [5] = details: previously examined peptide; cited from earlier work
# E. coli ATCC 25922 [6] = assay: Antibiotic interaction assay (Wimley), 2/3 broth microdilution: MIC alone, MIC of combination, FICI; assay type: cell-based
# Summary of the method: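 Broth microdilution in MH broth with ⅔-fold serial dilutions: each compound alone and a half-and-half peptide/drug mix, inoculum 5×10^5 CFU/mL. Incubation at 37° C for 18 h, growth read as OD600. Synergy expressed as FICI.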
Sequence,entry into Gram-positive bacteria (Gram-positive bacteria [1]),penetration of eukaryotic cells (MDA MB231 cells),"extent to which the mutated peptides entered Gram-negative bacteria (order) (E. coli; TAMRA-labeled, FIG. 1)",portion of the peptide that entered Gram-negative bacteria (E. coli; peptide about 2.5 microM),MIC [μM] Against E. coli [2] [µM],MIC [μM] Against S. aureus [3] [µM],"Fractional Inhibitory Concentration Index (FICI), Colistin & 1 μM peptide (E. coli ATCC 25922 [4])","MIC (μM) against E. coli ATCC 25922, Peptide alone (E. coli ATCC 25922 [4]; bacterial growth <10% of control) [µM]",activity against Gram-positive bacteria (Gram-positive bacteria [5]),FICI of peptide with colistin (E. coli ATCC 25922 [6]; labelled peptide + colistin),FICI of peptide with linezolid (E. coli ATCC 25922 [6]; labelled peptide + linezolid)
LKKLLKLPKKLLKL [LK-L8P],did not enter Gram-positive bacteria,did not penetrate eukaryotic cells,P>>N=D>Q=E,about 60%,10,>40,"0.83, Synergism",3,,,
RAGLQFPVGRVHRLLRK [buforin 5-20],,,,,20,,,,no activity against Gram-positive bacteria,0.5,0.7
